Legend:
[1] = test system: MCF7 (human breast cancer cell line); test: MTT toxicity assay in MCF7 breast cancer cells; assay type: cell-based
Method: Toxicity of the dibenzyl butyl lactone derivative (3-[(3,4-dimethoxyphenyl)cyclopentyl], 4-[(3-hydroxyphenol)methyl]oxolan-2-one) in breast cancer cells was evaluated using MTT assay. The MTT toxicity test is a colorimetric assay to measure cells' metabolic activity by serving as a substrate of cellular enzymes that reduce the tetrazolium orange dye, MTT (3-(4,5-Dimethylthiazol-2-yl)-2,5-diphenyltetrazolium bromide) to its insoluble, formazan, giving a purple color. The rate of conversion is directly proportional to cells' mitochondrial metabolic activity via NAD (P) H-dependent cellular oxidoreductase enzymes and serves as a surrogate marker of cell viability.
Cultures of MCF7 (human breast cancer cell line) working stock (5 passages) were established under standard culture conditions in Eagle's minimum essential medium (EMEM). EMEM was supplemented with 10% fetal bovine serum (FBS), 2 mM Glutamine and Pen/Strep, and Penicillin 0.01 mg/ml.
Cells previously expanded were seeded in 96 well plates at 1.9×10^5 and 9.6×10^4 cells/plate for 24- and 72-hours treatment respectively. This concentration is known to show the best window for the MTT assay, with better sensitivity and low variability.
5 mg of powdered enterolactone, dibenzyl butyl lactone derivative enantiomer A, and dibenzyl butyl lactone derivative enantiomer B were dissolved in 500 μl of DMSO at room temperature. Eight-point curves, ⅓ dilutions (highest concentration 125 μM), were prepared.
Twenty-four hours following the seeding process, the cells were washed once with phosphate buffered saline (PBS) and treated with the respective compounds in cell culture media. Each condition was tested in triplicates. For positive and negative controls, 8 mM methyl methane sulfonate (MMS) and DMSO 100% were used respectively.
Following compound addition, the plates were incubated for 24 and 72 hours. After the treatment period, cells were washed twice with PBS and media was replaced with MTT reagent at 0.5 mg/ml in Dulbecco's modified Eagle medium (DMEM) without phenol red. The plates were gently shaken and incubated for 4 hours. After the incubation the medium was removed and replaced by DMSO. The plates were gently shaken to solubilize the formazan crystals. Absorbance was measured using an Envision multiplate reader at a wavelength of 570 nm.
Eight serial dilutions were prepared (125.00, 41.67, 13.89, 4.63, 1.54, 0.51, 0.17 and 0.06 µM to evaluate the compounds (in triplicate). MTT results showing cell death values above 20% are considered as having a significant toxic effect.
MTT assay results are shown in Tables 2-7 and expressed as the percentage of cell death after treatment.

[2] = test system: human induced pluripotent stem (iPS) cells; assay type: cell-based; settings: human
Method: The dibenzyl butyl lactone derivative enantiomer A and B were compared to enterolactone and tested to determine toxicity using a human pluripotent stem (hPS) cell-based assay that predicts the developmental toxicity potential. […] The current study was conducted using human induced pluripotent stem (iPS) cells.
The impact of test article exposure on ornithine and cystine metabolism in human induced pluripotent stem (iPS) cells was measured for three test articles (dibenzyl butyl lactone derivative enantiomer A, dibenzyl butyl lactone derivative enantiomer B, and enterolactone) and prediction of the potential for developmental toxicity was made through application of the hPS cell-based assay. Exposure spanned a range of eight treatment levels per test article ranging from 0.03-100 μM.
The observed decrease in the o/c ratio following exposure to each test article is indicative of the potential for developmental toxicity and/or embryo lethality in vivo at or above the dTP concentration. FIGS. 15A-C show the o/c ratio of dibenzyl butyl lactone derivative enantiomer A (FIG. 15A), dibenzyl butyl lactone derivative enantiomer B (FIG. 15B), and (+/−) enterolactone (FIG. 15C). The graphs in FIGS. 15A-C show the cell viability and o/c/ ratio over concentrations of 0.03-100 μM with the straight horizontal line illustrating the developmental toxicity threshold of 0.85.

## O=C1OCC(Cc2ccc3c(c2)OCO3)/C1=C\c1cccc(O)c1 (single isomer, unassigned) [Enantiomer B, 3-[(3,4-dimethoxyphenyl)cyclopentyl], 4-[(3-hydroxyphenol)methyl]oxolan-2-one]
[1]; MCF7, 24 hours, 0.06 μM
  Cell death #1 (%): −90.03%
  Cell death #2 (%): −85.75%
  Cell death #3 (%): −79.34%
  Cell death (%) MEAN: −85.04%
[1]; MCF7, 24 hours, 0.17 μM
  Cell death #1 (%): −146.30%
  Cell death #2 (%): −115.67%
  Cell death #3 (%): −91.45%
  Cell death (%) MEAN: −117.81%
[1]; MCF7, 24 hours, 0.51 μM
  Cell death #1 (%): −124.22%
  Cell death #2 (%): −120.66%
  Cell death #3 (%): −95.01%
  Cell death (%) MEAN: −113.30%
[1]; MCF7, 24 hours, 1.54 μM
  Cell death #1 (%): −115.67%
  Cell death #2 (%): −156.99%
  Cell death #3 (%): −114.96%
  Cell death (%) MEAN: −129.21%
[1]; MCF7, 24 hours, 4.63 μM
  Cell death #1 (%): −134.19%
  Cell death #2 (%): −163.40%
  Cell death #3 (%): −138.47%
  Cell death (%) MEAN: −145.35%
[1]; MCF7, 24 hours, 13.89 μM
  Cell death #1 (%): −132.06%
  Cell death #2 (%): −174.09%
  Cell death #3 (%): −134.91%
  Cell death (%) MEAN: −147.02%
[1]; MCF7, 24 hours, 41.67 μM
  Cell death #1 (%): −211.84%
  Cell death #2 (%): −192.61%
  Cell death #3 (%): −204.01%
  Cell death (%) MEAN: −202.82%
[1]; MCF7, 24 hours, 125.00 μM
  Cell death #1 (%): 63.85%
  Cell death #2 (%): 47.46%
  Cell death #3 (%): 63.13%
  Cell death (%) MEAN: 58.15%
[1]; MCF7, 72 hours, 0.06 μM
  Cell death #1 (%): −31.84%
  Cell death #2 (%): −27.21%
  Cell death #3 (%): −56.05%
  Cell death (%) MEAN: −38.37%
[1]; MCF7, 72 hours, 0.17 μM
  Cell death #1 (%): −74.60%
  Cell death #2 (%): −57.08%
  Cell death #3 (%): −52.45%
  Cell death (%) MEAN: −61.38%
[1]; MCF7, 72 hours, 0.51 μM
  Cell death #1 (%): −28.49%
  Cell death #2 (%): −52.45%
  Cell death #3 (%): −56.31%
  Cell death (%) MEAN: −45.75%
[1]; MCF7, 72 hours, 1.54 μM
  Cell death #1 (%): −22.57%
  Cell death #2 (%): −37.77%
  Cell death #3 (%): −19.48%
  Cell death (%) MEAN: −26.60%
[1]; MCF7, 72 hours, 4.63 μM
  Cell death #1 (%): −32.87%
  Cell death #2 (%): −34.42%
  Cell death #3 (%): −30.04%
  Cell death (%) MEAN: −32.44%
[1]; MCF7, 72 hours, 13.89 μM
  Cell death #1 (%): −23.34%
  Cell death #2 (%): −30.55%
  Cell death #3 (%): −9.69%
  Cell death (%) MEAN: −21.20%
[1]; MCF7, 72 hours, 41.67 μM
  Cell death #1 (%): −18.96%
  Cell death #2 (%): −6.08%
  Cell death #3 (%): 17.10%
  Cell death (%) MEAN: −2.65%
[1]; MCF7, 72 hours, 125.00 μM
  Cell death #1 (%): 99.00%
  Cell death #2 (%): 99.52%
  Cell death #3 (%): 99.00%
  Cell death (%) MEAN: 99.17%
[1]; MCF7, at higher concentrations, 24 hours and 72 hours post-treatment
  breast cancer cell death as compared to enterolactone: increased breast cancer cell death as compared to enterolactone
[2]
  TP Concentration: 49.8 µM
  TP concentration, fold lower than (+/−) enterolactone TP: 4-6 fold
  dTP Concentration: 15.1 µM
  dTP and TP concentrations compared with anti-cancer drugs tested in this assay: higher than >90% of the anti-cancer drugs
  similarity of dTP concentrations between all three compounds: ≤ 2 fold

From patent US20250000843A1, “LIGNAN-INSPIRED COMPOUNDS, METHODS OF MAKING, AND USING THEREOF” (IOWAIBO, INC., priority 2023, published 2025)
